Data on one compound can be found in patent US12419305B2, “Antimicrobial compositions” (Firmenich SA, priority 2018, dated 2025).

Where two headings read alike, the source gives them in different places.

One test deals with C. xerosis ATCC 373. The test is described as follows: BCT test (bacterial contact time), 120 s, log reduction / effect fraction; CI by Compusyn. The test is classed as cell-based. The settings on record: Corynebacterium xerosis, ATCC373, 2 min, contact 120 s, 25% EtOH, read-out: Log reduction. In short, it runs like this: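 C. xerosis cells grown in BHI-TW80 at 37 °C to OD600 1.6 were exposed to ethanolic perfume compositions for 120 s. Viable counts (log CFU) came from serial dilution and OD600 growth after 37 °C incubation, giving log reduction versus ethanol control. CI was computed from concentrations and effect fractions, with <0.9 taken as synergy.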

Another test deals with S. aureus ATCC 6538. The test is described as follows: BCT test (bacterial contact time), 60 s, log reduction / effect fraction; CI by Compusyn. The test is classed as cell-based, Staphylococcus aureus. Conditions: Staphylococcus aureus, ATCC6538, 1 min, 60 s, in 25% EtOH. A digest of the protocol: (§1)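 Combination index comes from dose and effect fraction of each blend and its single components, with values under 0.9 taken as synergistic and above 1.0 as antagonistic. Effect reflects log reduction in viable count after short contact of ~1×10^8 bacteria/mL with ethanolic test solutions.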

The subject of test [1] is Salmonella enterica ATCC 10708. Described as above. The settings on record: Salmonella enterica, ATCC10708, 1 min, BCT 60 s, in 25% EtOH; for log reduction at 0.1 % strength: read-out: Log reduction. The test is classed as cell-based. A digest of the protocol: as §1
The subject of test [2] is Pseudomonas aeruginosa ATCC 15442. The test is described as above. The test is classed as cell-based. Conditions: Pseudomonas aeruginosa, ATCC15442, 1 min, BCT 60 s, in 25% EtOH. A digest of the protocol: as §1
Another test concerns S. haemolyticus 114126. Description: BCT test (bacterial contact time), 120 s, log reduction / effect fraction; CI by Compusyn. The test is classed as cell-based. Conditions: Staphylococcus haemolyticus, 114126, 2 min, contact 120 s, 25% EtOH. A digest of the protocol: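 S. haemolyticus 114126 (skin isolate), grown to OD600 1-2 in BHI-TW80 and resuspended at 1-5×10^8 CFU/mL, was mixed 1:1 with ethanolic perfume compositions or ethanol alone for 45, 60 or 120 s. Viable counts came from serial-dilution regrowth (37 °C, turbidity OD600), giving log reduction versus ethanol control; CI was computed from concentration–effect fraction pairs.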

For `CC1=CCC(C(C)(C)O)CC1` (stereo not shown) [Terpineol Ord, 2-(4-Methylcyclohex-3-en-1-yl)propan-2-ol], the log reduction at 0.25 % strength in the test on C. xerosis ATCC 373 (dose 0.25% w/v) was 2.9; with S. aureus ATCC 6538 (dose 0.250 % w/v, read-out: Log reduction), 7.3; in the test on S. haemolyticus 114126 (dose 0.25% w/v, read-out: Log reduction), 5.8. In addition, the log reduction at 0.3 % strength turned out to be 3.9 in the test with C. xerosis ATCC 373 (dose 0.3% w/v) and 7.4 with S. haemolyticus 114126 (dose 0.3% w/v, read-out: Log reduction). In addition, the log reduction at 0.35 % strength with C. xerosis ATCC 373 (dose 0.35% w/v) is 6. The log reduction at 0.4 % strength in the test on C. xerosis ATCC 373 (dose 0.4% w/v) is 6.4; in the test with S. haemolyticus 114126 (dose 0.4% w/v, read-out: Log reduction), 7.4. Further, the results for the log reduction at 0.125 % strength (in the test on S. aureus ATCC 6538 (dose 0.125 % w/v); in test [2] (Dose 0.125 % w/v)) were 0.8 and 4.4, respectively. For the same compound, the log reduction at 0.15 % strength with S. aureus ATCC 6538 (dose 0.150 % w/v, read-out: Log reduction) is 2.8; in test [1] (Dose 0.15 % w/v), 7.7; in test [2] (Dose 0.15 % w/v), 6.6. For the same compound, the log reduction at 0.175 % strength with S. aureus ATCC 6538 (dose 0.175 % w/v, read-out: Log reduction) is 4.8. The log reduction at 0.2 % strength with S. aureus ATCC 6538 (dose 0.200 % w/v, read-out: Log reduction) amounted to 6.2; in test [2] (Dose 0.2 % w/v, read-out: Log reduction) it was 7.6; in the test with S. haemolyticus 114126 (dose 0.2% w/v), 1.9. Besides, the log reduction at 0.1 % strength in test [1] (Dose 0.1 % w/v) is 0.8; in test [1] (Dose 0.10 % w/v), 5.4; in the test with S. haemolyticus 114126 (dose 0.1% w/v) it was -0.1. Besides, in test [1] (Dose 0.1375 % w/v), the log reduction at 0.1375 % strength amounted to 7.7. Moreover, in test [2] (Dose 0.135 % w/v), the log reduction at 0.135 % strength was determined as 4.3.
